Data set [1] in a line: Physical property (vapor pressure, odor) of alphacarboxylic acids and peroxyalphacarboxylic acids. The format is physicochemical.
The conditions of data set [2]: cited from earlier work.
Data set [3] concerns Salmonella ser. Heidelberg, Newport and Braenderup (modified to be resistant to 50 μg/mL nalidixic acid). In words: Antimicrobial efficacy on chicken carcass, 15 second dip. It counts as cell-based. Conditions: for Avg Log10 Survivors / CFU/Surface (CFU/ml × 50) / Log10 Reduction / Log10 Survivors: 15 second dip, drain time 30 minutes, room temperature. Here is the method:
Antimicrobial Efficacy of Peroxylactic Acid. The antimicrobial efficacy of peroxylactic acid generated from the solid peroxyalphahydroxycarboxylic acid forming composition of Table 4 was evaluated on chicken carcass against Salmonella in comparison to peroxyacetic acid (PAA). The molecular weight of PLA is 106, and PAA 76, therefore the molar equivalent base of the peracids is 500 ppm PLA equals to 359 ppm PAA.

In data set [4] the test system is Listeria monocytogenes ATCC 49594. Conditions: known; cited from earlier work.
Data set [5] is described as follows: PLA generation kinetics and pH from solid pellet of Table 4 dissolved in DI water. The format is physicochemical. The procedure: Following the successful perhydrolysis reactions of the lactide and glycolide esters, the solid composition shown in Table 4 using a lactide precursor was used to generate peroxylactic acid according to the same reaction scheme in FIG. 1. The lactide precursor was formulated into a solid pellet with citric acid and sodium percarbonate and the solid peroxyalphahydroxycarboxylic acid forming composition was added to water for the perhydrolysis reaction to generate peroxylactic acid (PLA). Beneficially, the citric acid acts as both a buffer and a dispersant or disintegrating reagent to provide effervescence to dissolve the solid composition more quickly into water and initiate the reaction of forming PLA. The reaction kinetics were evaluated by dissolving approximately 2.5 gram pellet as shown in Table 4 in 500 mL DI water to measure PLA generation and pH over time.
The PLA generation were measured on two occasions. […] The initial testing point of 10 minutes provides time for the pellet to dissolve in the water so that PLA generation can begin.
The stability of the tablets is also quantifiable by the chemistry of the reagents as they are capable of self-reacting. As a result, tablet (or solid) stability can also be assessed by the ability or capacity of the tablet to generate PLA after storage as another quantifiable mechanism to confirm stability. This is shown in Example 1, Table 6 compared to Table 5 is a direct comparison of PLA generation profiles of the tablets after 9 months of storage. […] In some embodiments it is preferred that at least about 50% or preferably at least about 80% of the PLA (or peroxyalphahydroxycarboxylic acid) generation is maintained.

Data set [6] concerns Escherichia coli ATCC 11229. In words: US EPA food contact suspension test (AOAC 960.09). The format is cell-based. Conditions: 30 seconds, 500 ppm synthetic hard water, ambient (18-20° C.). Here is the method:
(§1) Antimicrobial Efficacy of Peroxylactic Acid. The antimicrobial efficacy of peroxylactic acid generated from the solid peroxyalphahydroxycarboxylic acid forming composition of Table 4 was evaluated following the US EPA food contact suspension test protocol (AOAC 960.09) against Staphylococcus aureus and Escherichia coli according to the conditions set forth in Table 7.

The test system of data set [7] is Staphylococcus aureus ATCC 6538. In words: US EPA food contact suspension test (AOAC 960.09). It counts as cell-based. Particulars: 30 seconds, 500 ppm synthetic hard water, ambient (18-20° C.). The procedure: as §1
The test system of data set [8] is Listeria monocytogenes ATCC 49594. In words: US EPA food contact suspension test (AOAC 960.09), FIG. 3. The format is cell-based. Particulars: 100 ppm, 30 seconds. The procedure:
(§2) Additional Antimicrobial Efficacy of Peroxylactic Acid. Additional antimicrobial efficacy of generated peroxylactic acid was evaluated following the US EPA food contact suspension test protocol (AOAC 960.09) against Salmonella, E. coli, Campylobacter and Listeria according to the conditions set forth in Table 12.

Data set [9] has as its system Salmonella, E. coli, Campylobacter and Listeria. The description is as above. Conditions: as low as 25 ppm, 30 seconds. It counts as cell-based. Here is the method:
as §2

Setting [10] is: approx. 2.5 gram pellet of Table 4 in 500 mL DI water, first PLA generation, 10 min.
[11] abbreviates: approx. 2.5 gram pellet of Table 4 in 500 mL DI water, first PLA generation, 30 min.
Where [12] appears, read: approx. 2.5 gram pellet of Table 4 in 500 mL DI water, first PLA generation, 60 min.
Where [13] appears, read: approx. 2.5 gram pellet of Table 4 in 500 mL DI water, first PLA generation, 90 min.
The mark [14] stands for this setting: approx. 2.5 gram pellet of Table 4 in 500 mL DI water, first PLA generation, 120 min.
Where [15] appears, read: approx. 2.5 gram pellet of Table 4 in 500 mL DI water, first PLA generation, 150 min.
[16] abbreviates: approx. 2.5 gram pellet of Table 4 in 500 mL DI water, first PLA generation, 180 min.
The mark [17] stands for this setting: approx. 2.5 gram pellet of Table 4 in 500 mL DI water, first PLA generation, 210 min.
The mark [18] stands for this setting: approx. 2.5 gram pellet of Table 4 in 500 mL DI water, first PLA generation, 240 min.
The mark [19] stands for this setting: same batch of tablets stored under ambient conditions for 9 months, 20 min.
[20] abbreviates: same batch of tablets stored under ambient conditions for 9 months, 30 min.
The mark [21] stands for this setting: same batch of tablets stored under ambient conditions for 9 months, 40 min.
The mark [22] stands for this setting: same batch of tablets stored under ambient conditions for 9 months, 50 min.
Setting [23] is: same batch of tablets stored under ambient conditions for 9 months, 60 min.
[24] abbreviates: same batch of tablets stored under ambient conditions for 9 months, 120 min.
Setting [25] is: same batch of tablets stored under ambient conditions for 9 months, 240 min.
Where [26] appears, read: same batch of tablets stored under ambient conditions for 9 months, 300 min.
The mark [27] stands for this setting: same batch of tablets stored under ambient conditions for 9 months, 360 min.

Where “and” joins values, the source holds several entries; their conditions need not be identical. Identical values can stand only once.

As to `CC(=O)O` [Acetic Acid], the Odor result in data set [1] is “Sour”. The “Vapor Pressure (20° C.)” value in data set [2] is reported as 1.56 KPa.
`CC(=O)OO` [PAA, peroxyacetic acid, reference compound]: the Odor result in data set [1] is “Sharp pungent”. Further, in data set [3] (500 ppm), the “Avg Log10 Survivors” value came out at 6.54 Log10; the “CFU/Surface (CFU/ml × 50)” value was 4.35E+06 CFU/Surface and 2.35E+06 CFU/Surface and 3.95E+06 CFU/Surface; the “Log10 Reduction” value came to 1.09 Log10; the “Log10 Survivors” value was 6.64 Log10 and 6.37 Log10 and 6.60 Log10. Besides, the “Concentration required for greater than 7 log reduction against Listeria” value in [4] is recorded as “at least 180 ppm”. Further, the “Vapor Pressure (20° C.)” value in data set [2] is listed as 2.06 KPa.
Take `O=C(O)CO` [Glycolic acid]: the Odor entry in data set [1] is “Odorless”. Moreover, in data set [2], the “Vapor Pressure (20° C.)” value was 0.003 KPa.
In the case of `CC(O)C(=O)OO` (stereo not shown) [PLA, peroxylactic acid], the Odor entry in data set [1] was “Odorless”. For the same compound, the “PLA (ppm)” value is on record as 130 ppm in data set [5] (setting [10]); 222 ppm in data set [5] (setting [11]); 236 ppm in [5] (setting [12]); 217 ppm in data set [5] (setting [13]); 202 ppm in data set [5] (setting [14]); 188 ppm in [5] (setting [15]). For the same compound, the “PLA (ppm)” value in data set [5] (setting [16]) is given as 170 ppm; in data set [5] (setting [17]), 152 ppm; in data set [5] (setting [18]), 146 ppm; in data set [5] (same batch of tablets stored under ambient conditions for 9 months, 10 min), 122 ppm; in data set [5] (setting [19]), 150 ppm; in [5] (setting [20]), 170 ppm. The “PLA (ppm)” value is listed as 198 ppm in data set [5] (setting [21]); 198 ppm in data set [5] (setting [22]); 200 ppm in data set [5] (setting [23]); 179 ppm in [5] (setting [24]); 160 ppm in data set [5] (same batch of tablets stored under ambient conditions for 9 months, 180 min); 129 ppm in [5] (setting [25]). In addition, the “PLA (ppm)” value in [5] (setting [26]) is reported as 102 ppm; in data set [5] (setting [27]) it was 85 ppm. In addition, the pH in data set [5] (setting [10]) is 6.06; in data set [5] (setting [11]) it was 5.95; in [5] (setting [12]), 5.64; in data set [5] (setting [13]), 5.41; in [5] (setting [14]), 5.23; in [5] (setting [15]), 5.11. The pH in data set [5] (setting [16]) came out at 5.01; in data set [5] (setting [17]) it was 4.93; in data set [5] (setting [18]) it was 4.87; in data set [5] (setting [19]), 5.73; in [5] (setting [20]), 5.69; in data set [5] (setting [21]) it was 5.62. Further, the pH in data set [5] (setting [22]) is recorded as 5.58; in data set [5] (setting [23]), 5.49; in [5] (setting [24]), 5.25; in data set [5] (setting [25]) it was 4.82; in [5] (setting [26]), 4.74; in data set [5] (setting [27]), 4.68. Besides, the “Average Log10 Growth” value is 3.25 Log10 in data set [6] (25 ppm PLA); less than 1.00 Log10 in [6] (50 ppm PLA); less than 1.00 Log10 in data set [6] (100 ppm PLA); more than 6.48 Log10 in data set [7] (50 ppm PLA); 5.22 Log10 in [7] (100 ppm PLA); 2.82 Log10 in data set [7] (150 ppm PLA). Further, the “Average Log10 Growth” value in [7] (200 ppm PLA) is reported as less than 1.00 Log10. Moreover, the CFU/ml was 1.49E+03 CFU/ml and 2.10E+03 CFU/ml in data set [6] (25 ppm PLA); less than 1.00E+01 CFU/ml in [6] (50 ppm PLA); less than 1.00E+01 CFU/ml in data set [6] (100 ppm PLA); more than 3.00E+06 CFU/ml in [7] (50 ppm PLA); 2.20E+05 CFU/ml and 1.24E+05 CFU/ml in data set [7] (100 ppm PLA); 9.20E+02 CFU/ml and 4.80E+02 CFU/ml in data set [7] (150 ppm PLA). Also, the CFU/ml in [7] (200 ppm PLA) is on record as less than 1.00E+01 CFU/ml. Further, the “Log10 Growth” value in [6] (25 ppm PLA) was 3.17 Log10 and 3.32 Log10; in data set [6] (50 ppm PLA) it was less than 1.00 Log10; in data set [6] (100 ppm PLA), less than 1.00 Log10; in data set [7] (50 ppm PLA) it was more than 6.48 Log10; in data set [7] (100 ppm PLA), 5.34 Log10 and 5.09 Log10; in [7] (150 ppm PLA), 2.96 Log10 and 2.68 Log10. Also, the “Log10 Growth” value in data set [7] (200 ppm PLA) is on record as less than 1.00 Log10. For the same compound, the “Log10 Reduction” value in data set [6] (25 ppm PLA) is 4.64 Log10; in data set [6] (50 ppm PLA), more than 6.89 Log10; in data set [6] (100 ppm PLA), more than 6.89 Log10; in data set [7] (50 ppm PLA), less than 1.32 Log10; in [7] (100 ppm PLA) it was 2.58 Log10; in data set [7] (150 ppm PLA), 4.98 Log10. Also, the “Log10 Reduction” value in [7] (200 ppm PLA) was more than 6.80 Log10; in data set [3] (500 ppm), 1.08 Log10; in data set [3] (1000 ppm), 1.47 Log10; in data set [3] (2000 ppm), 1.09 Log10. The “Avg Log10 Survivors” value in [3] (500 ppm) worked out at 6.55 Log10; in [3] (1000 ppm) it was 6.16 Log10; in data set [3] (2000 ppm), 6.54 Log10. The “CFU/Surface (CFU/ml × 50)” value in data set [3] (500 ppm) was 2.90E+06 CFU/Surface and 5.45E+06 CFU/Surface; in data set [3] (1000 ppm), 1.60E+06 CFU/Surface and 1.85E+06 CFU/Surface and 1.05E+06 CFU/Surface. In addition, the “Log10 Survivors” value in [3] (500 ppm) was 6.46 Log10 and 6.74 Log10; in [3] (1000 ppm) it was 6.20 Log10 and 6.27 Log10 and 6.02 Log10. In addition, the figures for the “Micro efficacy (log reduction) compared to peroxyacetic acid” value in [3] (1000 ppm) and in data set [3] (varying concentrations) were “improved micro efficacy” and “at least equivalent micro efficacy”, respectively. The “log reduction against Listeria” value in data set [8] is recorded as “greater than 7 log”. Moreover, the “Efficacy against various microbes” value in data set [9] is recorded as “provides efficacy at low concentration doses”.
`CC(O)C(=O)O` (stereo not shown) [Lactic Acid]: in data set [1], the Odor entry is given as “No irritative odor”. The “Vapor Pressure (20° C.)” value in [2] is 0.01 KPa.

These data come from US12258310B2, “Solid peroxyalphahydroxycarboxylic acid generation compositions and the use thereof” (ECOLAB USA INC., priority 2021, dated 2025).
